Measurements published in patent US8697725B2, “Tetrahydroquinoline derivatives and their pharmaceutical use” (GlaxoSmithKline LLC, priority 2009, dated 2014).
Structures can show the parent of a compound that is named as a salt.

Test system: IL-6
Test: Measurement of LPS Induced IL-6 Secretion from Whole Blood
Assay type: cell-based
Settings: 24 h, LPS 200 ng/ml, immunoassay, read-out: pIC50, LPS induced IL-6 secretion from whole blood (converted)
Experimental: Measurement of LPS Induced IL-6 Secretion from Whole Blood
Activation of monocytic cells by agonists of toll-like receptors such as bacterial lipopolysaccharide (LPS) results in production of key inflammatory mediators including IL-6. Such pathways are widely considered to be central to the pathophysiology of a range of auto-immune and inflammatory disorders.
Compounds to be tested are diluted to give a range of appropriate concentrations of which 1 ul of the diluted stocks is added to a 96 well plate. Following addition of whole blood (130 ul) the plates are incubated at 37 degrees (5% CO2) for 30 min before the addition of 10 ul of 2.8 ug/ml LPS, diluted in complete RPMI 1640 (final concentration=200 ng/ml), to give a total volume of 140 ul per well. After further incubation for 24 hours at 37 degrees, 140 ul of PBS are added to each well. The plates are sealed, shaken for 10 minutes and then centrifuged (2500 rpm×10 min). 100 ul of the supernatant are removed and IL-6 levels assayed by immunoassay (typically by MesoScale Discovery technology) either immediately or following storage at −20 degrees. Concentration response curves for each compound was generated from the data and an IC50 value was calculated.

| IC50 | Structure (SMILES) |
| --- | --- |
| ≤ 31.6 µM | CC(=O)N1c2ccc(-c3cnn(CC(C)(C)O)c3)cc2[C@H](NC(=O)OC(C)C)C[C@@H]1C [Example 109, 1-Methylethyl {(2S,4R)-1-acetyl-6-[1-(2-hydroxy-2-methylpropyl)-1H-pyrazol-4-yl]-2-methyl-1,2,3,4-tetrahydro-4-quinolinyl}carbamate] |
| ≤ 31.6 µM | CC(=O)N1c2ccc(-c3ccccn3)cc2[C@H](NC(=O)OC(C)C)C[C@@H]1C [Example 101, 1-Methylethyl[(2S,4R)-1-acetyl-2-methyl-6-(2-pyridinyl)-1,2,3,4-tetrahydro-4-quinolinyl]carbamate] |
| ≤ 31.6 µM | CC(=O)N1c2ccc(-c3cn(CCC(=O)O)cn3)cc2[C@@H](NC(=O)OC(C)C)C[C@H]1C (racemic) [Example 99, 3-{(Cis)-4-[1-acetyl-2-methyl-4-({[(1-methylethyl)oxy]carbonyl}amino)-1,2,3,4-tetrahydro-6-quinolinyl]-1H-imidazol-1-yl}propanoic acid trifluoroacetate] |
| ≤ 31.6 µM | CC(=O)N1c2ccc(-c3ccccc3)cc2[C@H](NC(=O)OC(C)C)C[C@@H]1C [Example 94, 1-Methylethyl[(2S,4R)-1-acetyl-2-methyl-6-phenyl-1,2,3,4-tetrahydro-4-quinolinyl]carbamate] |
| ≤ 31.6 µM | CC(=O)N1c2ccc(-c3ccc(CCC(=O)O)cc3)cc2[C@H](NC(=O)OC(C)C)C[C@@H]1C [Example 102, 3-{4-[(2S,4R)-1-Acetyl-2-methyl-4-({[(1-methylethyl)oxy]carbonyl}amino)-1,2,3,4-tetrahydro-6-quinolinyl]phenyl}propanoic acid] |
| ≤ 31.6 µM | CC(=O)N1c2ccc(-c3cn(CCN)cn3)cc2[C@H](NC(=O)OC(C)C)C[C@@H]1C [Example 85, 1-Methylethyl {(2S,4R)-1-acetyl-6-[1-(2-aminoethyl)-1H-imidazol-4-yl]-2-methyl-1,2,3,4-tetrahydro-4-quinolinyl}carbamate hydrochloride] |

Continued, compound first:

| Structure (SMILES) | IC50 |
| --- | --- |
| CC(=O)N1c2ccc(-c3noc(CN)n3)cc2[C@H](NC(=O)OC(C)C)C[C@@H]1C [Example 66, 1-Methylethyl {(2S,4R)-1-acetyl-6-[5-(aminomethyl)-1,2,4-oxadiazol-3-yl]-2-methyl-1,2,3,4-tetrahydro-4-quinolinyl}carbamate hydrochloride] | ≤ 31.6 µM |
| CC(=O)N1c2ccc(-n3cnc(C)c3)cc2[C@H](NC(=O)OC(C)C)C[C@@H]1C [Example 84, 1-Methylethyl[(2S,4R)-1-acetyl-2-methyl-6-(4-methyl-1H-imidazol-1-yl)-1,2,3,4-tetrahydro-4-quinolinyl]carbamate] | ≤ 31.6 µM |
| CC(=O)N1c2ccc(-c3noc(CCN)n3)cc2[C@H](NC(=O)OC(C)C)C[C@@H]1C [Example 77, 1-Methylethyl {(2S,4R)-1-acetyl-6-[5-(2-aminoethyl)-1,2,4-oxadiazol-3-yl]-2-methyl-1,2,3,4-tetrahydro-4-quinolinyl}carbamate hydrochloride] | ≤ 31.6 µM |
| CC(=O)N1c2ccc(-c3noc(C)n3)cc2[C@H](NC(=O)OC(C)C)C[C@@H]1C [Example 64, 1-Methylethyl[(2S,4R)-1-acetyl-2-methyl-6-(5-methyl-1,2,4-oxadiazol-3-yl)-1,2,3,4-tetrahydro-4-quinolinyl]carbamate] | ≤ 31.6 µM |
| CC(=O)N1c2ccc(-c3c[nH]nn3)cc2[C@H](NC(=O)OC(C)C)C[C@@H]1C [Example 65, 1-Methylethyl[(2S,4R)-1-acetyl-2-methyl-6-(1H-1,2,3-triazol-4-yl)-1,2,3,4-tetrahydro-4-quinolinyl]carbamate] | ≤ 31.6 µM |
| CC(=O)N1c2ccc(-c3nc(CCN)no3)cc2[C@H](NC(=O)OC(C)C)C[C@@H]1C [Example 70, 1-Methylethyl {(2S,4R)-1-acetyl-6-[3-(2-aminoethyl)-1,2,4-oxadiazol-5-yl]-2-methyl-1,2,3,4-tetrahydro-4-quinolinyl}carbamate hydrochloride] | ≤ 31.6 µM |
